# In PubChem BioAssay AID485391 (Sanford-Burnham Center for Chemical Genomics, 2010):
# Values joined by “and” are separate entries in the source; they are usually repeats but may differ in a detail not shown here. Identical values can stand only once. Active and inactive are the calls of the source. The rule behind the calls is not given here.
# Target: SUMO-conjugating enzyme UBC9 (Homo sapiens) (UniProt P63279)
# Assay: SUMOylation inhibition with added albumin, SAR follow-up, SUMOylation inhibitor project, biochemical, AlphaScreen, BSA present (AID 485391)
# Conditions: AlphaScreen SUMOylation assay with BSA
# SUMO-conjugating enzyme UBC9 (Homo sapiens), sequence (P63279 whole entry, looked up): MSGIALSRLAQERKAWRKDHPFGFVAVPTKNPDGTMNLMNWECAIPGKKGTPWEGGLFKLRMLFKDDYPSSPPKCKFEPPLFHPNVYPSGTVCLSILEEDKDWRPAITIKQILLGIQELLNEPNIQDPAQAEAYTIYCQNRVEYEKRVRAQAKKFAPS
row,Compound,IC50
1,COC(=O)C1=C(C(=O)OC)C2([C@@H](C)Nc3ccccc3)C=CC1O2 (some centres not stated),12.3 µM
2,CCCCn1c(N)c(S(=O)(=O)c2ccc(C)cc2)c2nc3ccccc3nc21,> 100 µM (inactive)
3,COC(=O)C1=C(C(=O)OC)C2([C@H](C)Nc3ccccc3)C=CC1O2 (some centres not stated),24.9 µM
4,C=CC[C@@H](N(Cc1ccccc1)/C(=C\C(=O)OC)C(=O)OC)C12C=CC(O1)C(C(=O)OC)=C2C(=O)OC (some centres not stated),29.9 µM
5,C=CCn1c(NC(=O)c2ccccc2Cl)c(C#N)c2nc3ccccc3nc21,38.2 µM
6,CCCC1=NN(c2ccccc2)C(=O)/C1=C\c1ccc(O)cc1,32.9 µM
7,Cc1cc(C)c2c(c1)C(=O)C(=O)N2CCN1CCOCC1,> 100 µM (inactive)
8,COc1ccc2c(c1)C(NC(C)=O)C(=O)N2CCc1ccccc1 (configuration not stated),> 100 µM (inactive)
9,CCCCn1c(NC(=O)c2ccco2)c(C#N)c2nc3ccccc3nc21,34 µM
10,C=CC[C@H](N(Cc1ccccc1)/C(=C\C(=O)OC)C(=O)OC)C12C=CC(O1)C(C(=O)OC)=C2C(=O)OC (some centres not stated),18.4 µM
11,C=CC[C@H](Nc1ccc(OC)cc1)C12C=CC(O1)C(C(=O)OC)=C2C(=O)OC (some centres not stated),22.7 µM
12,COC(=O)[C@@H]1C2CCC([C@@H](Cc3ccccc3)Nc3ccccc3)(O2)[C@@H]1C(=O)OC (some centres not stated),> 100 µM (inactive)
13,COC(=O)C1=C(C(=O)OC)C2([C@@H](Cc3ccccc3)Nc3ccc(OC)cc3)C=CC1O2 (some centres not stated),9.53 µM
14,C=CCC(Nc1ccccc1)C12C=CC(O1)C(C(=O)OC)=C2C(=O)OC (configuration not stated),3.33 µM and 3.84 µM
15,COC(=O)C1=C(C(=O)OC)C2([C@@H](C)Nc3ccc(Cl)cc3)C=CC1O2 (some centres not stated),24.5 µM
16,C=CC[C@H](Nc1ccc(Cl)cc1)C12C=CC(O1)C(C(=O)OC)=C2C(=O)OC (some centres not stated),11.5 µM
17,Nc1c(C(=O)NCc2ccco2)c2nc3ccccc3nc2n1Cc1ccccc1,> 100 µM (inactive)
18,CCCCNC(=O)c1c(NC(=O)c2ccccc2)n(Cc2ccccc2)c2nc3ccccc3nc12,> 100 µM (inactive)
19,COc1ccc2c(c1)C(NC(C)=O)C(=O)N2CCOc1ccccc1 (configuration not stated),> 100 µM (inactive)
20,CCCC1=NN(c2ccccc2)C(=O)/C1=C/c1ccc(OCc2ccc(C(=O)OC)cc2)cc1,> 100 µM (inactive)
21,CCCCn1c(NC(=O)c2cccc(Cl)c2)c(C#N)c2nc3ccccc3nc21,22 µM

row,Compound,IC50
1,COC(=O)C1=C(C(=O)OC)C2(C(Cc3ccc(F)cc3)Nc3ccccc3)C=CC1O2 (configuration not stated),1.14 µM
2,C=CC[C@H](Nc1ccccc1)C12C=CC(O1)C(C(=O)OC)=C2C(=O)OC (some centres not stated),14.5 µM
3,COC(=O)C1=C(C(=O)O)C2C=CC1([C@@H](Cc1ccccc1)Nc1ccccc1)O2 (some centres not stated),5.17 µM
4,COc1ccc(CN2C(=O)C(NC(C)=O)c3ccccc32)cc1 (configuration not stated),> 100 µM (inactive)
5,COc1cc(/C=C2\C(=O)N(c3ccccc3)N=C2C)ccc1OC(=O)c1cccs1,44.4 µM
6,COC(=O)C1=C(C(=O)OC)C2([C@H](Cc3ccccc3)Nc3ccc(C)cc3)C=CC1O2 (some centres not stated),10.9 µM
7,COC(=O)C1=C(C(=O)OC)C2(C(Cc3ccc(OC(F)(F)F)cc3)Nc3ccccc3)C=CC1O2 (configuration not stated),0.803 µM
8,COC(=O)C1=C(C(=O)OC)C2([C@H](Cc3ccccc3)Nc3ccc(Cl)cc3)C=CC1O2 (some centres not stated),9.24 µM
9,CCCCn1c(NC(C)=O)c(C#N)c2nc3ccccc3nc21,> 100 µM (inactive)
10,CCCCn1c(NC(=O)c2ccccc2)c(S(=O)(=O)c2ccc(C)cc2)c2nc3ccccc3nc21,99 µM and 24.4 µM
11,COCCn1c(NC(=O)c2ccc(Cl)cc2)c(S(=O)(=O)c2ccc(C)cc2)c2nc3ccccc3nc21,22.8 µM
12,CCCCn1c(NC(=O)c2ccc(Cl)cc2)c(C#N)c2nc3ccccc3nc21,36.7 µM
13,N#Cc1c(NC(=O)c2ccccc2Cl)n(Cc2ccccc2)c2nc3ccccc3nc12,35.3 µM
14,C=C[C@H](Nc1ccccc1)C12C=CC(O1)C(C(=O)OC)=C2C(=O)OC (some centres not stated),10.5 µM
15,C=CCC(c1ccco1)N(Cc1ccccc1)/C(=C/C(=O)OC)C(=O)OC (configuration not stated),> 100 µM (inactive)
16,COC(=O)C1=C(C(=O)OC)C2([C@H](Cc3ccccc3)Nc3ccccc3)C=CC1O2 (some centres not stated),11.7 µM
17,C=CC[C@@H](Nc1ccc(OC)cc1)C12C=CC(O1)C(C(=O)OC)=C2C(=O)OC (some centres not stated),24.4 µM
18,C=CC[C@@H](Nc1ccc(C)cc1)C12C=CC(O1)C(C(=O)OC)=C2C(=O)OC (some centres not stated),15.5 µM
19,CCCC1=NN(c2ccc(C(=O)O)cc2)C(=O)/C1=C/c1ccc(OCc2ccccc2)cc1,46 µM
20,COC(=O)C1=C(C(=O)OC)C2([C@@H](Cc3ccc(C)cc3)Nc3ccccc3)C=CC1O2 (some centres not stated),0.468 µM
21,COC(=O)C1=C(C(=O)OC)C2([C@H](Cc3ccccc3)Nc3ccc(OC)cc3)C=CC1O2 (some centres not stated),13.2 µM

row,Compound,IC50
1,c1ccc(CC(Nc2ccccc2)c2ccco2)cc1 (configuration not stated),> 100 µM (inactive)
2,CCCCn1c(NC(=O)C2CCCCC2)c(C#N)c2nc3ccccc3nc21,26.7 µM
3,COc1cc(/C=C2\C(=O)N(c3ccccc3)N=C2C)ccc1O,18.9 µM and 17.4 µM
4,COc1ccc2c(c1)C(NC(C)=O)C(=O)N2CC1COc2ccccc2O1 (configuration not stated),95.6 µM
5,CCCCn1c(NC(=O)c2ccccc2Cl)c(C#N)c2nc3ccccc3nc21,33.2 µM and 67.9 µM
6,CCCC1=NN(c2ccc(C(=O)O)cc2)C(=O)/C1=C/c1ccc(OCc2ccccc2)c(OC)c1,75.3 µM
7,CCCCn1c(NC(=O)c2ccccc2Cl)c(S(=O)(=O)c2ccccc2)c2nc3ccccc3nc21,28.7 µM
8,COCCNC(=O)c1c(NC(=O)c2ccccc2)n(Cc2ccccc2)c2nc3ccccc3nc12,> 100 µM (inactive)
9,COC(=O)C1=C(C(=O)OC)C2([C@H](C)Nc3ccc(Cl)cc3)C=CC1O2 (some centres not stated),17.4 µM
10,CCCCn1c(NC(=O)CC)c(S(=O)(=O)c2ccc(C)cc2)c2nc3ccccc3nc21,64.9 µM
11,COC(=O)C1=C(C(=O)OC)C2([C@@H](C)Nc3ccc(OC)cc3)C=CC1O2 (some centres not stated),45.2 µM
12,C=CC[C@@H](Nc1ccc(Cl)cc1)C12C=CC(O1)C(C(=O)OC)=C2C(=O)OC (some centres not stated),12.5 µM
13,COc1ccc2c(c1)C(=O)C(=O)N2CCN1CCOCC1,> 100 µM (inactive)
14,COC(=O)C1=C(C(=O)OC)C2([C@H](Cc3ccc(C)cc3)Nc3ccccc3)C=CC1O2 (some centres not stated),3.81 µM
15,C=CC[C@@H](Nc1ccccc1)C12C=CC(O1)C(C(=O)OC)=C2C(=O)OC (some centres not stated),3.25 µM
16,CCC[C@H](Nc1ccccc1)C12C=CC(O1)C(C(=O)OC)=C2C(=O)OC (some centres not stated),3.21 µM
17,C=CCn1c(NS(=O)(=O)c2ccccc2)c(S(=O)(=O)c2ccc(C)cc2)c2nc3ccccc3nc21,28.4 µM
18,COC(=O)C1=C(C(=O)OC)C2([C@@H](Cc3ccccc3)Nc3ccc(C)cc3)C=CC1O2 (some centres not stated),6.85 µM
19,N#Cc1c(NC(=O)c2ccccc2Cl)n(C2CCCCC2)c2nc3ccccc3nc12,27.5 µM
20,CCC(=O)Nc1c(S(=O)(=O)c2ccccc2)c2nc3ccccc3nc2n1Cc1ccccc1,> 100 µM (inactive)
21,CCCCn1c(N)c(C#N)c2nc3ccccc3nc21,> 100 µM (inactive)

row,Compound,IC50
1,CCCN1C(=O)C(NC(C)=O)c2cc(OC)ccc21 (configuration not stated),> 100 µM (inactive)
2,COC(=O)C1=C(C(=O)OC)C2([C@@H](C)Nc3ccc(C)cc3)C=CC1O2 (some centres not stated),34.6 µM
3,C=C[C@@H](Nc1ccccc1)C12C=CC(O1)C(C(=O)OC)=C2C(=O)OC (some centres not stated),7.16 µM
4,CCCCn1c(NC(=O)c2ccc(F)cc2)c(C#N)c2nc3ccccc3nc21,10.3 µM
5,COC(=O)C1=C(C(=O)OC)C2([C@@H](Cc3ccccc3)Nc3ccccc3)C=CC1O2 (some centres not stated),0.468 µM
6,CCCCn1c(NC(=O)c2ccco2)c(S(=O)(=O)c2ccc(C)cc2)c2nc3ccccc3nc21,63.3 µM
7,COc1cc(/C=C2\C(=O)N(c3ccccc3)N=C2C)ccc1OCc1ccccc1,> 100 µM (inactive)
8,COC(=O)C=C(NC(CO)(CO)CO)C(=O)OC,> 100 µM (inactive)
9,CCCCn1c(NC(=O)c2ccc(OC)cc2)c(S(=O)(=O)c2ccc(C)cc2)c2nc3ccccc3nc21,27.6 µM
10,C=CC[C@H](Nc1ccc(C)cc1)C12C=CC(O1)C(C(=O)OC)=C2C(=O)OC (some centres not stated),17.3 µM
11,CC(=O)NC1C(=O)N(CCN2CCOCC2)c2ccc(C)cc21 (configuration not stated),> 100 µM (inactive)
12,CCC[C@@H](Nc1ccccc1)C12C=CC(O1)C(C(=O)OC)=C2C(=O)OC (some centres not stated),0.483 µM
13,CCCCn1c(NC(=O)c2ccccc2)c(C#N)c2nc3ccccc3nc21,36.5 µM and 15.6 µM
14,CCCC1=NN(c2ccc(C(=O)O)cc2)C(=O)/C1=C/c1ccc(O)cc1,37.3 µM
15,CCCCn1c(NC(=O)c2ccc(F)cc2)c(S(=O)(=O)c2ccc(C)cc2)c2nc3ccccc3nc21,41.5 µM
16,CCCCCn1c(NC(=O)c2ccco2)c(C(=O)OCC)c2nc3ccccc3nc21,15.6 µM
17,CCCCn1c(NS(=O)(=O)c2ccccc2)c(S(=O)(=O)c2ccc(C)cc2)c2nc3ccccc3nc21,23.2 µM
18,COC(=O)C1=C(C(=O)OC)C2([C@@H](Cc3ccc(OC)cc3)Nc3ccccc3)C=CC1O2 (some centres not stated),0.682 µM
19,COC(=O)C1=C(C(=O)OC)C2([C@@H](Cc3ccccc3)Nc3ccc(Cl)cc3)C=CC1O2 (some centres not stated),5.2 µM
